Consider 15 compounds from patent US7285560B2, “Indole derivatives or benzimidazole derivatives for modulating IκB kinase” (Sanofi-Aventis Deutschland GmbH, priority 2002, dated 2007).

In one data set the target is protein tyrosine kinase. The experiment in a line: Protein tyrosine kinase assay (Upstate test kit). It counts as biochemical. The following applies: for IC50: ATP concentration of 50 μM, substrate Poly (Glu, Tyr 4:1) 1 mg/ml; for Specificity ratio: IC50 protein tyrosine kinase relative to IκB kinase, > denotes better than. On the procedure: As examples of the specificities of the IκB kinase inhibitors which had been discovered, their IC50 values were determined in the case of the kinase enzyme protein tyrosine kinase.
Protein tyrosine kinase activity was determined using the appropriate test kit from Upstate Biotechnologie in accordance with the manufacturer's instructions and at an ATP concentration of 50 μM. As a difference from the manufacturer's method, Multi-Screen plates (Millipore; phosphocellulose MS-PH, cat. MAPHNOB10, or Durapore PVDF, cat. MADVNOB 50), were used, together with the appropriate exhaust system, instead of phospho-cellulose filters. Poly (Glu, Tyr 4:1) (Sigma cat. P0275) was used as the test kit substrate at a test concentration of 1 mg/ml. The plates were then measured in a Wallac MicroBeta scintillation counter. 100 μM of the test substance were used in each case.
The test substance was tested in a duplicate determination. The IC50 calculations were performed using the GraFit 3.0 software package.

A short description of data set [1]: Blood plasma level after oral administration, male C57/BL6 mice. It counts as in vivo. To be noted: about 25 mg/kg orally as suspension in 0.5% HEC, sampling 0.25-8 hours. As to the method:
Blood plasma level of N-[(S)-2-diphenylamino-1-(5-oxo-4,5-dihydro[1,3,4]-oxadiazol-2-yl)ethyl]-2-(2-methylaminopyrimidin-4-yl)-1H-indol-5-carboxamide.
Blood samples were taken after 0.25; 0.5; 1; 2; 4; 6 and 8 hours (sacrificial blood was withdrawn from in each case 2 animals at each of the time points mentioned). The blood samples were converted into heparin plasma. The plasma samples were stored at −20° C. until analyzed.
The plasma samples were thawed. The plasma proteins which interfered with the analysis were then precipitated with acetonitrile.
Processing: 50 μl of plasma+20 μl of internal standard (5 μg/ml)+50 μl of buffer (2 mMol ammonium formate solution, pH 2.6/acetonitrile, 40:60, v/v) were mixed for about 10 sec on a Whirlmixer. 150 μl of acetonitrile were then added and the whole was mixed once again for about 10 sec. The samples were then centrifuged (Hettich, EBA 12, about 12 000 revolutions per minute). The supernatants (in each case about 200 μl) were transferred to glass tubes. 70 μl of the supernatant were injected.
The lower detection limit of the method is 0.01 μg/mL.

The target in the next data set is T1, IκB kinase (Homo sapiens, UniProt O14920+O15111).
T1 construct: endogenous in cells; host or cells: HeLa S3 (S100 extract; ammonium sulfate cut, Superose-6 fractions at 670 kDa)
T1 sequence (O14920 whole entry): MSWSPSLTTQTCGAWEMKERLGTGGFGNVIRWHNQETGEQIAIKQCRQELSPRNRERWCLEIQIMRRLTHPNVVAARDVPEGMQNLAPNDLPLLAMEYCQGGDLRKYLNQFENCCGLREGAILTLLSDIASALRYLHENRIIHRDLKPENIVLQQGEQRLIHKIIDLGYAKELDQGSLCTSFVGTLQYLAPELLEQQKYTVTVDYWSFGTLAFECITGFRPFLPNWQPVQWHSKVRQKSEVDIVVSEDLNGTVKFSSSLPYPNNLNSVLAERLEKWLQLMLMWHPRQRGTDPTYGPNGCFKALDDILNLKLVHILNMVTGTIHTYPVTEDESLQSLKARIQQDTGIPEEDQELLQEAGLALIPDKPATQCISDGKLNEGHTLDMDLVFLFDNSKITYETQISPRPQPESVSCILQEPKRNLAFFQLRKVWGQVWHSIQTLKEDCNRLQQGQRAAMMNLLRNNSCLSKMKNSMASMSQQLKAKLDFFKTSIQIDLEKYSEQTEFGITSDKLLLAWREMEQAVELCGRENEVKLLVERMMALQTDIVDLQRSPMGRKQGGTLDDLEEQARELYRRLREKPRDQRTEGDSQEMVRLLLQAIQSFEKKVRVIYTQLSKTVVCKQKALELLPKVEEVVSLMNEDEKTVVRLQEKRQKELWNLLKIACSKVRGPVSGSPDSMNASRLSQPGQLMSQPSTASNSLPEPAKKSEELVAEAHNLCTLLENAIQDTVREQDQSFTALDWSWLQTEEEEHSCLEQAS
T1 sequence (O15111 whole entry): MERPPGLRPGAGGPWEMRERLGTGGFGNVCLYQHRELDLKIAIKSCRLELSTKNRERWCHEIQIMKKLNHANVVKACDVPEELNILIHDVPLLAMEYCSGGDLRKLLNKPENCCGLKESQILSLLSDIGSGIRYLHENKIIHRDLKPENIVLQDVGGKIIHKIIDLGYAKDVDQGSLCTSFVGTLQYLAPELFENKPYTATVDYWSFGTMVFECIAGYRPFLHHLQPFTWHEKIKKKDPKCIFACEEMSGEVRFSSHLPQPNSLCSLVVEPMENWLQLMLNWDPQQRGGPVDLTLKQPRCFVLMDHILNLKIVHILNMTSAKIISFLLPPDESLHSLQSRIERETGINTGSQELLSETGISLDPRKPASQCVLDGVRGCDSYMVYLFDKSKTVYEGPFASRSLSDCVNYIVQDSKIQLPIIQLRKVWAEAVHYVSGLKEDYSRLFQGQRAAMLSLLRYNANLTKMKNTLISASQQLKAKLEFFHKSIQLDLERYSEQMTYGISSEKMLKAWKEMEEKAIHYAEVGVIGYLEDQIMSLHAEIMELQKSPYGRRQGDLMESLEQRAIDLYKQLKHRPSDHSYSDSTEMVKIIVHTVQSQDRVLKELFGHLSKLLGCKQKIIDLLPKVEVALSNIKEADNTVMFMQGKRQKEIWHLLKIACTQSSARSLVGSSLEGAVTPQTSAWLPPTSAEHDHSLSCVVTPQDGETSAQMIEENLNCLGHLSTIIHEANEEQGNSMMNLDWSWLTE
T1 sequence (Q9Y6K9 whole entry partner): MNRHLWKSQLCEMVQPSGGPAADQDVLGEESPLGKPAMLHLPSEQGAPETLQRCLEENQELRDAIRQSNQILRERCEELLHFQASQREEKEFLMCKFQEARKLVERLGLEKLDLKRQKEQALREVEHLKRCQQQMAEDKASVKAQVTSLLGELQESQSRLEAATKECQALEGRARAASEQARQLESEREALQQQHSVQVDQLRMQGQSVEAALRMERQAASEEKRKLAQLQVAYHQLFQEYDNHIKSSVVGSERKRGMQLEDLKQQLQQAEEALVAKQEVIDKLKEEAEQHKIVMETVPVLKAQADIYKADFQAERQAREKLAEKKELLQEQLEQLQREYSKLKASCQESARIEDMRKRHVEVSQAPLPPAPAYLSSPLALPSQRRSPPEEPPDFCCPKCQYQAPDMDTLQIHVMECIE
The experiment in a line: IκB kinase ELISA. The class given is biochemical.

A short description of data set [2]: Comparison experiment: blood plasma level after oral administration, male NMRI mice. It counts as in vivo. On the procedure:
[drawing 27] was prepared as described in WO 01/30774 and is termed the comparison compound below. The comparison compound was administered to male NMRI mice. For this, in each case about 50 mg of the comparison compound per kg of body weight of the mice were administered orally as a suspension in 0.5% HEC (by way of a probang). Blood samples were taken after 0.25; 0.5; 1; 2; 4; 6 and 8 hours (sacrificial blood was withdrawn from in each case 2 animals at each of the time points mentioned). The blood samples were converted into heparin plasma. The plasma samples were stored at −20° C. until analyzed.
Analysis: The analysis was carried out using HPLC/UV.
Processing: 50 μl of plasma+20 μl of internal standard (5 μg/ml)+50 μl of buffer (1% formic acid/acetonitrile, 40:60, v/v) were mixed for about 10 sec on a Whirlmixer. 150 μl of acetonitrile were then added and the whole was mixed once again for about 10 sec. The samples were then centrifuged (Hettich, EBA 12, about 12 000 revolutions per min). The supernatants (in each case about 200 μl) were transferred to glass tubes. 100 μl of the supernatant were injected.

In general, IC50 refers to the midpoint of a concentration-inhibition curve. A lower IC50 goes with inhibition by little substance. As usually defined, the AUC is concentration integrated over time. `CNc1nccc(-c2cc3cc(C(=O)N[C@@H](CN(c4ccccc4)c4ccccc4)c4n[nH]c(=O)o4)ccc3[nH]2)n1` [Example 28, N-[(S)-2-Diphenylamino-1-(5-oxo-4,5-dihydro[1,3,4]oxadiazol-2-yl)ethyl]-2-(2-methylaminopyrimidin-4-yl)-1H-indole-5-carboxamide] yielded an IC50 on protein tyrosine kinase of 82500 nM. The “plasma level, at most (maximum blood plasma level)” value in data set [1] was 4300 ng/mL. In addition, the AUC in data set [1] (mouse, plasma, po, read-out: exposure, measured as AUC=area under the curve) came to 5400 ng·h/mL.

As to `CNc1nccc(-c2cc3cc(C(=O)NC(CN(c4ccc(F)cc4)c4ccccn4)C(N)=O)ccc3[nH]2)n1` (stereo not drawn) [Example 30, N-{1–Carbamoyl-2-[(4-fluorophenyl)pyridin-2-ylamino]ethyl}-2-(2-methylaminopyrimidin-4-yl)-1H-indole-5-carboxaminde], on IκB kinase, the IC50 stood at 50 nM. Besides, in the data set with protein tyrosine kinase, the Specificity ratio is on record as over 200.

On IκB kinase, `CNc1nccc(-c2cc3cc(C(=O)N[C@@H](CN(c4ccccc4)c4ccccn4)c4n[nH]c(=O)o4)ccc3[nH]2)n1` [Example 33, N-[(S)-1-(5-Oxo-4,5-dihydro-1,3,4-oxadiazol-2-yl)-2-(phenylpyridin-2-ylamino)ethyl]-2-(2-methylaminopyrimidin-4-yl)-1H-indole-5-carboxamide] registered an IC50 of 12 nM. Besides, the Specificity ratio in the data set on protein tyrosine kinase was over 833.

`NC(=O)C(CN(c1ccc(F)cc1)c1ccccn1)NC(=O)c1ccc2[nH]c(-c3ccnc(N)n3)cc2c1` (stereo not drawn) [Example 35, N-{1–Carbamoyl-2-[(4-fluorophenyl)pyridin-2-ylamino]ethyl}-2-(2-aminopyrimidin-4-yl)-1H-indole-5-carboxamide]: the IC50 against IκB kinase stood at 10 nM. In addition, in the data set with protein tyrosine kinase, the Specificity ratio is reported as over 1000.

`CNc1nccc(-c2cc3cc(C(=O)NC(CN(c4ccc(F)cc4)c4ccccn4)c4nnc[nH]4)ccc3[nH]2)n1` (stereo not drawn) [Example 36, N-[2-[(4-Fluorophenyl)pyridin-2-ylamino]-1-(4H-[1,2,4]triazol-3-yl)ethyl]-2-(2-methylaminopyrimidin-4-yl)-1H-indole-5-carboxamide]: the IC50 on IκB kinase came out at 5 nM. The Specificity ratio in the data set with protein tyrosine kinase is given as over 2000.

Regarding `CNc1nccc(-c2cc3cc(C(=O)N[C@@H](CN(c4ccccc4)c4nccs4)C(N)=O)ccc3[nH]2)n1` [Example 42, N-[1–Carbamoyl-2-(phenylthiazol-2-ylamino)ethyl]-S-2-(2-methylaminopyrimidin-4-yl)-1H-indole-5-carboxamide], at IκB kinase, inhibition was half-maximal at 9 nM (IC50). Also, the Specificity ratio in the data set with protein tyrosine kinase is on record as over 1110.

In the case of `CNc1nccc(-c2cc3cc(C(=O)N[C@@H](CN(c4ccccc4)c4ccccn4)C(=O)NOC)ccc3[nH]2)n1` [Example 43, N-[1-Methoxycarbamoyl-2-(phenylpyridin-2-ylamino)ethyl]-S-2-(2-methylaminopyrimidin-4-yl)-1H-indole-5-carboxamide], 0.8 nM corresponded to half-maximal inhibition on IκB kinase (IC50). Besides, in the data set on protein tyrosine kinase, the Specificity ratio was over 12500.

`CNc1nccc(-c2cc3cc(C(=O)NC(CN(c4ccccc4)c4ncccn4)C(N)=O)ccc3[nH]2)n1` (stereo not drawn) [Example 47, N-{1–Carbamoyl-2[(phenyl)pyrimidin-2-ylamino]ethyl}-2-(2-methylaminopyrimidin-4-yl)-1H-indole-5-carboxamide] had an IC50 at IκB kinase of 6 nM. In addition, the Specificity ratio in the data set with protein tyrosine kinase is over 1665.

With `CNc1nccc(-c2cc3cc(C(=O)NC(CN(c4ccccc4)c4ncccn4)C(=O)NCCO)ccc3[nH]2)n1` (stereo not drawn) [Example 49, N-[1-(2-Hydroxyethylcarbamoyl)-2-(phenylpyrimidin-2-ylamino)ethyl]-2-(2-methylaminopyrimidin-4-yl)-1H-indole-5-carboxamide], half-maximal inhibition against IκB kinase (IC50) required 35 nM.

Consider `CNc1nccc(-c2cc3cc(C(=O)N[C@@H](CN(c4ccccc4)c4nccc(C(F)(F)F)n4)C(=O)O)ccc3[nH]2)n1` [Example 54, (S)-2-{[2-(2-Methylaminopyrimidin-4-yl)-1H-indole-5-carbonyl]amino}-3-[phenyl-(4-trifluoromethylpyrimidin-2-yl)amino]propionic Acid], for which half-maximal inhibition on IκB kinase (IC50) required 3 nM. Further, in the data set on protein tyrosine kinase, the Specificity ratio is over 3330.

Consider `CNc1nccc(-c2cc3cc(C(=O)NC(CN(c4ccc(F)cc4)c4ncc(C)cn4)C(N)=O)ccc3[nH]2)n1` (stereo not drawn) [Example 61, N-{1–Carbamoyl-2-[(4-fluorophenyl)-(5-methylpyrimidin-2-yl)amino]ethyl}-2-(2-methylaminopyrimidin-4-yl)-1H-indole-5-carboxamide], for which 6 nM corresponded to half-maximal inhibition against IκB kinase (IC50). Further, the Specificity ratio with protein tyrosine kinase is on record as over 1650.

`CNc1nccc(-c2nc3cc(C(=O)N[C@@H](CN(c4ccccc4)c4ccccc4)C(N)=O)ccc3[nH]2)n1` [Example 63] displayed an IC50 against IκB kinase of 3 nM. Besides, the Specificity ratio in the data set on protein tyrosine kinase was over 1000.

For the compound `CNc1nccc(-c2nc3cc(C(=O)NC(CN(c4ccccc4)c4ncccn4)C(N)=O)ccc3[nH]2)n1` (stereo not drawn) [Example 65, N-{1–Carbamoyl-2-[(phenyl)pyrimidin-2-ylamino]ethyl}2-(2-methylaminopyrimidin-4-yl)-1H-benzimidazole-5-carboxamide], the IC50 at IκB kinase is 4 nM. Also, the Specificity ratio in the data set with protein tyrosine kinase was over 2500.

As for `CNc1nccc(-c2nc3cc(C(=O)NC(CN(c4ccccc4)c4ccccn4)C(N)=O)ccc3[nH]2)n1` (stereo not drawn) [Example 67, N-{1–Carbamoyl-2-[(phenyl)pyridin-2-ylamino]ethyl}-2-(2-methylaminopyrimidin-4-yl)-1H-benzimidazole-5-carboxamide], at IκB kinase, the IC50 came to 2 nM. Besides, the Specificity ratio in the data set with protein tyrosine kinase was over 5000.

`CCN(C[C@H](NC(=O)c1ccc2[nH]c(-c3ccncc3)cc2c1)C(N)=O)c1ccccc1` [comparison compound] displayed an IC50 on protein tyrosine kinase of 46400 nM. Besides, in the data set on protein tyrosine kinase (for the comparison compound the IκB kinase IC50 is taken from WO 01/30774), the “ratio of the IC50 values for protein tyrosine kinase relative to IκB kinase” value is given as 46.35. The “maximum blood plasma level lower than with compound 28” value in data set [2] (comparison compound 50 mg/kg vs compound 28 25 mg/kg, oral, mice) is listed as “about 60%”. The “plasma level, at most (maximum blood plasma level)” value in data set [2] (male NMRI mice, about 50 mg/kg orally as suspension in 0.5% HEC, sampling 0.25-8 hours) was found to be 1500 ng/mL. In addition, the AUC in data set [2] (mouse, plasma, po, male NMRI mice, about 50 mg/kg orally as suspension in 0.5% HEC, sampling 0.25-8 hours, read-out: exposure, measured as the AUC=area under the curve) was 1700 ng·h/mL.
